Test results reported in patent US20230293560A1, “METHOD FOR MODULATING THE BLADDER MICROBIOME TO IMPROVE BLADDER HEALTH” (Kimberly-Clark Worldwide, Inc., priority 2020, published 2023).
Where “and” joins values, the source holds several entries; their conditions need not be identical. Equal entries are not always repeated.

Key:
[1] = test system: S. anginosus, KC18-1131-3B, Bladder (Sa-2); assay type: cell-based; details: Table 6, prebiotic 2%, one line per replicate
Procedure: (§1) Further testing was conducted to put the prebiotic compounds in competition assay testing, as further described in the test methods section herein. In the competition assay testing, each competition involved testing a single prebiotic compound with the commensal bacteria species of L. crispatus, KC18-1173-1, Bladder (“Lc-3”—Table 2) against the pathogenic bacterial species of S. anginosus, KC18-1131-3B, Bladder (“Sa-2”—Table 2).
(§2) • 1. An in house bacterial agar was created based on MRS agar (Kaplan and Hutkins, 2000) where the glucose is substituted for the prebiotic to be tested (either dextran MW ˜6,000, alpha-cyclodextrin, glucomannan, or pectin), bromocresol purple was included as a pH indicator. • 2. Bacteria were enumerated on each agar and color changes were recorded. Method for Competition Assay (Modified from “In Vitro Evaluation of Nutrients that Selectively Confer a Competitive Advantage to Lactobacilli” Vongsa et al, Beneficial Microbes 2016) • 1. Create 2% w/v stock of prebiotic or positive control (glucose/dextrose) as described above. • 2. From a freezer stock subculture the bacteria twice into De Man, Rogosa and Sharpe (MRS) broth (BD Difco, Becton Dickinson, Franklin Lakes, NJ), 37° C., stationary, anaerobic, overnight. • 3. From the last subculture, plate onto an MRS agar plate for L. crispatus KC18-1173-1 or blood agar for S. anginosus KC18-1131-3B, grow 37° C., stationary, anaerobic, overnight. • 4. Create a bacterial suspension by using a sterile tipped swab to transfer colonies of bacteria into a PBS suspension blank to a 2 MacFarland for both species. • 5. Enumerate the starting culture. • 6. Add 9.8 mL of prebiotic media into a 15 mL conical tube. • 7. Add 100 μL of the diluted bacteria to the media, incubate at 37° C., anaerobic, 48 hours. • 8. Harvest 100 μL from the tube containing the prebiotic and plate onto MRS agar and tryptic soy agar (TSA). • 9. Enumerate the bacteria on the MRS agar (both the L. crispatus and the S. anginosus). Small colonies are counted as S. anginosus and large colonies are counted as L. crispatus. • 10. Enumerate the bacteria on the TSA plate. […] Growth of the bacteria in the negative control (CHL media without prebiotic) was subtracted from the growth in the presence of the prebiotic or formulation.

[2] = test system: L. crispatus, KC18-1173-1, Bladder (Lc-3); assay: Competition assay, L. crispatus recovered; assay type: cell-based, Lactobacillus crispatus; details: Table 6, prebiotic 2%, one line per replicate
Procedure: as §1, §2

[3] = change vs start, background growth in CHL media subtracted, MRS agar

CO[C@H]1O[C@H](CO)[C@@H](O)[C@H](O)[C@H]1O [Alpha-Methyl-D-Glucoside]
Sa-2 MRS Δ [1, 3]: 0.45 Log CFU/mL and 0.55 Log CFU/mL
Sa-2 TSA Δ ([1]; change vs start, background growth in CHL media subtracted, TSA): 0.62 Log CFU/mL and 0.41 Log CFU/mL
Sa-2 MRS end ([1]; competition Sa-2 vs Lc-3, 48 hours, anaerobic, enumerated on MRS agar): 7.15 Log CFU/mL and 7.40 Log CFU/mL
Sa-2 TSA end ([1]; competition Sa-2 vs Lc-3, 48 hours, enumerated on TSA): 7.47 Log CFU/mL and 7.54 Log CFU/mL
Lc-3 MRS Δ [2, 3]: 1.39 Log CFU/mL and 0.70 Log CFU/mL
Lc-3 MRS end ([2]; competition Sa-2 vs Lc-3, 48 hours, enumerated on MRS agar): 6.52 Log CFU/mL and 6.78 Log CFU/mL
